The values below come from patent US20250074891A1 (Anaxis Pharma Pty Ltd., priority 2021, published 2025).

Common to all, as to conditions: Table 35
One experiment deals with MLKL (full length) (Homo sapiens (Human), UniProt Q8NB16). In words: KINOMEscan binding assay, MLKL (full length). How it is done: (§1) Kinase assays. For most assays, kinase-tagged T7 phage strains were grown in parallel in 24-well blocks in an E. coli host derived from the BL21 strain. E. coli were grown to log-phase and infected with T7 phage from a frozen stock (multiplicity of infection=0.4) and incubated with shaking at 32° C. until lysis (90-150 minutes).
(§2) The Hill Slope was set to −1.

Another experiment concerns the target RIP1 (Homo sapiens (Human), UniProt Q13546). In words: KINOMEscan binding assay, RIP1.
For the next experiment, the target named is RIP3 (Homo sapiens (Human), UniProt Q9Y572). The experiment is described as follows: KINOMEscan binding assay, RIP3. On the procedure:
as §1, §2

Sequence of RIP1 (Q13546 whole entry): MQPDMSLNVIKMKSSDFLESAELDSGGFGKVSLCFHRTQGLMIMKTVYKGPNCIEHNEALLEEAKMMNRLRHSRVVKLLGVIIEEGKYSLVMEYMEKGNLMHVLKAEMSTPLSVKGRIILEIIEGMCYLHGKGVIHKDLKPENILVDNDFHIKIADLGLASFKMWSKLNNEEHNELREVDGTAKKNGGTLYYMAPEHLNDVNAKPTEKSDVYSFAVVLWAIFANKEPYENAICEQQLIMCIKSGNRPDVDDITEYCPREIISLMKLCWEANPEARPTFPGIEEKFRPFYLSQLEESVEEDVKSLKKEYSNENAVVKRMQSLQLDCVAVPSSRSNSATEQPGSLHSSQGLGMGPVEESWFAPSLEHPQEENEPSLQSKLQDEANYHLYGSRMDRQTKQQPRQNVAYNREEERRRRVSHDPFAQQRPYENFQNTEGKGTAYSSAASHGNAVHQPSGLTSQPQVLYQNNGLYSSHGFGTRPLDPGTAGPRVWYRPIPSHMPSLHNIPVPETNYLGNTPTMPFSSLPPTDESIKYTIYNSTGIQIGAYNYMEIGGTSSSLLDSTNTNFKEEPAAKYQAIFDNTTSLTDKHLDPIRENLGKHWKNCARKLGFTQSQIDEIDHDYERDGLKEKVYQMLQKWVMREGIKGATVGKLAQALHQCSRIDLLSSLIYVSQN
Sequence of MLKL (full length) (Q8NB16 whole entry): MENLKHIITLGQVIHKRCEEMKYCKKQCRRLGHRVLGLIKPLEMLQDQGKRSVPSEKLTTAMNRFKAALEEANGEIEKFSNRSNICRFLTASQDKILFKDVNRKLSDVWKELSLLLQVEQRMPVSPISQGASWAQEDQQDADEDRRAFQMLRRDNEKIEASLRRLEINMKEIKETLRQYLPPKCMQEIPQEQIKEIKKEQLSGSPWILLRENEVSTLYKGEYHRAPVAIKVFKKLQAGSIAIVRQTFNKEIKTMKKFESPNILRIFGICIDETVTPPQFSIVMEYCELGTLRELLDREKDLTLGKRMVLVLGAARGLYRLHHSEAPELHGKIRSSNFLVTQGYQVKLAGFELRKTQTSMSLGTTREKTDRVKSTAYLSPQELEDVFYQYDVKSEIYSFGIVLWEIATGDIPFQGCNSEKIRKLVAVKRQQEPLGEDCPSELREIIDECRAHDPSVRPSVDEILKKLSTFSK
Sequence of RIP3 (Q9Y572 whole entry): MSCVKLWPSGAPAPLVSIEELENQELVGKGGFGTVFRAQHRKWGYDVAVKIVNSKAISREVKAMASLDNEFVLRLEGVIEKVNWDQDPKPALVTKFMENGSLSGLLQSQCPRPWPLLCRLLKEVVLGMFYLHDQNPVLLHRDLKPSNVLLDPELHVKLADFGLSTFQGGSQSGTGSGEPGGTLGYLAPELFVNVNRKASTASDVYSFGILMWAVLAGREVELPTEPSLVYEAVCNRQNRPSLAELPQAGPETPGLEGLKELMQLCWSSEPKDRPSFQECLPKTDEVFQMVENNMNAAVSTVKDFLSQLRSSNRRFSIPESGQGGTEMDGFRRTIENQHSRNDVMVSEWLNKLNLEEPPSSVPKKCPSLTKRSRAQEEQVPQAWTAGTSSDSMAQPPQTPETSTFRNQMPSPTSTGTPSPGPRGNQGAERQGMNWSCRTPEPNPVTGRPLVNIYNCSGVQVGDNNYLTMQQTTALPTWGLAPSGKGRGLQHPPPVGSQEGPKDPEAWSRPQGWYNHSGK

For the molecule `CCS(=O)(=O)Nc1ccc(-c2n[nH]c(Nc3cnccn3)c2C(N)=O)cc1Oc1ccc(Cl)cc1` [Compound 185, 3-(3-(4-chlorophenoxy)-4-(ethylsulfonamido)phenyl)-5-(pyrazin-2-ylamino)-1H-pyrazole-4-carboxamide], the Kd on MLKL (full length) is below 0.01 µM; on RIP1 it was above 30 µM; at RIP3, above 30 µM.
In the case of `NC(=O)c1c(-c2ccc(NS(=O)(=O)CC(F)(F)F)c(OCc3ccc(F)cc3)c2)n[nH]c1Nc1ccnc(C(F)(F)F)n1` [Compound 186, 3-(3-((4-fluorobenzyl)oxy)-4-((2,2,2-trifluoroethyl)sulfonamido)phenyl)-5-((2-(trifluoromethyl)pyrimidin-4-yl)amino)-1H-pyrazole-4-carboxamide], the Kd at MLKL (full length) is below 0.01 µM; on RIP1, above 30 µM; at RIP3, above 30 µM.
On to `NC(=O)c1c(-c2ccc(NS(=O)(=O)C(F)F)c(OCc3ccc(F)cc3)c2)n[nH]c1Nc1ccc(C(F)(F)F)nc1` [Compound 188, 3-(4-((difluoromethyl)sulfonamido)-3-((4-fluorobenzyl)oxy)phenyl)-5-((6-(trifluoromethyl)pyridine-3-yl)amino)-1H-pyrazole-4-carboxamide], for which the Kd at MLKL (full length) was below 0.01 µM; on RIP1, above 30 µM; at RIP3, above 30 µM.
Consider `COc1cnc(Nc2[nH]nc(-c3ccc(NS(=O)(=O)C(F)F)c(OCc4ccc(Cl)cc4)c3)c2C(N)=O)cn1` [Compound 190, 3-(3-((4-chlorobenzyl)oxy)-4-((difluoromethyl)sulfonamido)phenyl)-5-((5-methoxypyrazin-2-yl)amino)-1H-pyrazole-4-carboxamide], for which the figures for the Kd at MLKL (full length), on RIP1 and on RIP3 were below 0.01 µM, above 30 µM and above 30 µM, respectively.
For `COc1cnc(Nc2[nH]nc(-c3ccc(NS(=O)(=O)C(F)F)c(OCc4ccc(F)cc4)c3)c2C(N)=O)cn1` [Compound 191, 3-(4-((difluoromethyl)sulfonamido)-3-((4-fluorobenzyl)oxy)phenyl)-5-((5-methoxypyrazin-2-yl)amino)-1H-pyrazole-4-carboxamide], the values for the Kd on MLKL (full length), on RIP1 and on RIP3 were below 0.01 µM, above 30 µM and above 30 µM, respectively.
On to `CCS(=O)(=O)Nc1ccc(-c2n[nH]c(Nc3cnccn3)c2C(N)=O)cc1O[C@H](C)c1ccc(F)cc1` [Compound 193, (R)-3-(4-(ethylsulfonamido)-3-(1-(4-fluorophenyl)ethoxy)phenyl)-5-(pyrazin-2-ylamino)-1H-pyrazole-4-carboxamide], for which the Kd at MLKL (full length) was below 0.01 µM; on RIP1, above 30 µM; at RIP3, above 30 µM.
Regarding `CCS(=O)(=O)Nc1ccc(-c2n[nH]c(Nc3ccc(C(F)(F)F)nc3)c2C(N)=O)cc1OCc1ccc(F)cc1` [Compound 194], the Kd on MLKL (full length) was below 0.01 µM; on RIP1, above 30 µM; at RIP3, above 30 µM.
In the case of `CCS(=O)(=O)Nc1ccc(-c2n[nH]c(Nc3ccnc(C(F)(F)F)n3)c2C(N)=O)cc1OCc1ccc(F)cc1` [Compound 195, 3-(4-(ethylsulfonamido)-3-((4-fluorobenzyl)oxy)phenyl)-5-((2-(trifluoromethyl)pyrimidin-4-yl)amino)-1H-pyrazole-4-carboxamide], the Kd on MLKL (full length) was below 0.01 µM; on RIP1 it was above 30 µM; on RIP3 it was above 30 µM.
On to `CCS(=O)(=O)Nc1ccc(-c2n[nH]c(Nc3cnccn3)c2C(N)=O)c(OCc2ccc(Cl)cc2)c1` [Compound 198, 3-(2-((4-chlorobenzyl)oxy)-4-(ethylsulfonamido)phenyl)-5-(pyrazin-2-ylamino)-1H-pyrazole-4-carboxamide], for which the Kd is below 0.01 µM at MLKL (full length), above 30 µM on RIP1 and above 30 µM on RIP3.
For `CCS(=O)(=O)Nc1ccc(-c2n[nH]c(Nc3cnccn3)c2C(N)=O)cc1O[C@@H](C)c1ccc(F)cc1` [Compound 199, (S)-3-(4-(ethylsulfonamido)-3-(1-(4-fluorophenyl)ethoxy)phenyl)-5-(pyrazin-2-ylamino)-1H-pyrazole-4-carboxamide], the Kd was below 0.01 µM on MLKL (full length), above 30 µM at RIP1 and above 30 µM on RIP3.
Turning to `CCS(=O)(=O)Nc1ccc(-c2n[nH]c(Nc3ccccn3)c2C(N)=O)c(OCc2ccc(F)cc2)c1` [Compound 201], the Kd is below 0.01 µM at MLKL (full length), above 30 µM on RIP1 and above 30 µM on RIP3.
On to `NC(=O)c1c(-c2ccc(NS(=O)(=O)C(F)F)c(OCc3ccc(F)cc3)c2)n[nH]c1Nc1cnccn1` [Compound 202, 3-(4-((difluoromethyl)sulfonamido)-3-((4-fluorobenzyl)oxy)phenyl)-5-(pyrazin-2-ylamino)-1H-pyrazole-4-carboxamide], for which the Kd on MLKL (full length) is below 0.01 µM; on RIP1, above 30 µM; at RIP3, above 30 µM.
For `CCS(=O)(=O)Nc1ccc(-c2n[nH]c(Nc3cnccn3)c2C(N)=O)cc1Oc1cccc(F)c1` [Compound 204, 3-(4-(ethylsulfonamido)-3-(3-fluorophenoxy)phenyl)-5-(pyrazin-2-ylamino)-1H-pyrazole-4-carboxamide], the Kd is below 0.01 µM at MLKL (full length), above 30 µM at RIP1 and above 30 µM at RIP3.
As for `NC(=O)c1c(-c2ccc(NS(=O)(=O)C(F)(F)F)cc2)n[nH]c1Nc1cccc(C(F)(F)F)n1` [Compound 205], the Kd on MLKL (full length) was below 0.01 µM; on RIP1, above 30 µM; at RIP3, above 30 µM.
On to `CCS(=O)(=O)Nc1ccc(-c2n[nH]c(Nc3cnccn3)c2C(N)=O)cc1OCCc1ccccc1Cl` [Compound 206, 3-(3-(2-chlorophenethoxy)-4-(ethylsulfonamido)phenyl)-5-(pyrazin-2-ylamino)-1H-pyrazole-4-carboxamide], for which the Kd on MLKL (full length) is below 0.01 µM; at RIP1, above 30 µM; on RIP3 it was above 30 µM.
On to `CCS(=O)(=O)Nc1ccc(-c2n[nH]c(Nc3cnccn3)c2C(N)=O)cc1OCCc1ccccc1` [Compound 210, 3-(4-(ethylsulfonamido)-3-phenethoxyphenyl)-5-(pyrazin-2-ylamino)-1H-pyrazole-4-carboxamide], for which the Kd at MLKL (full length) was below 0.01 µM; on RIP1 it was above 30 µM; at RIP3, above 30 µM.
As for `CCS(=O)(=O)Nc1ccc(-c2n[nH]c(Nc3cnccn3)c2C(N)=O)cc1OCCc1ccccc1F` [Compound 211, 3-(4-(ethylsulfonamido)-3-(2-fluorophenethoxy)phenyl)-5-(pyrazin-2-ylamino)-1H-pyrazole-4-carboxamide], the Kd is below 0.01 µM at MLKL (full length), above 30 µM on RIP1 and above 30 µM on RIP3.
For `CCS(=O)(=O)Nc1ccc(-c2n[nH]c(Nc3cc(C(F)(F)F)ccn3)c2C(N)=O)cc1OCc1ccc(F)cc1` [Compound 213], the Kd at MLKL (full length) was 0.01 to 1 µM; on RIP1, above 30 µM; at RIP3, above 30 µM.
Take `NC(=O)c1c(-c2ccc(NS(=O)(=O)C(F)F)c(OCc3ccc(F)cc3)c2)n[nH]c1Nc1cccc(C(F)(F)F)n1` [Compound 217]: the Kd on MLKL (full length) is below 0.01 µM; on RIP1 it was above 30 µM; at RIP3 it was above 30 µM.
Take `CCS(=O)(=O)Nc1ccc(-c2n[nH]c(Nc3cnccn3)c2C(N)=O)cc1OCCc1cccc(F)c1` [Compound 219, 3-(4-(ethylsulfonamido)-3-(3-fluorophenethoxy)phenyl)-5-(pyrazin-2-ylamino)-1H-pyrazole-4-carboxamide]: the Kd on MLKL (full length) was below 0.01 µM; on RIP1, above 30 µM; at RIP3, above 30 µM.
